This is an account of results in PubChem BioAssay (NCI).

Each structure is given as a SMILES string.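 Test compounds were applied to cells in 96-well plates for 48 hours at 5 doses. Here, GI50 denotes the concentration required for 50% inhibition of growth. At the TGI there is no net growth.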

Assay in all cases: NCI anticancer screen, dose series, 48 h
Assay [1] deals with DLD-1 colon.
For assay [2], the system named is DMS 273 small cell lung.
The test system of assay [3] is HOP-18 NSCLC.
Assay [4] deals with KM20L2 colon.
The subject of assay [5] is M19-MEL melanoma.
Assay [6] has as its system RXF-631 renal.
Assay [7] concerns XF 498 CNS.
The subject of assay [8] is SNB-78 CNS.
The test system of assay [9] is MDA-N.

As for `CC(=O)O[C@H]1[C@@H]2[C@@H]3[C@@H](C[C@H]1C)[C@@H](C)CO[C@@]1(C)CC/C=C(/C)C[C@@H]2O[C@@H]31`, the TGI in assay [1], in assay [2], in assay [3], in assay [4], in [5] and in assay [6] was > 100 µM each time. In assay [7], the TGI was > 100 µM.

With `Cc1c(O)c(=O)ccn1C1OC(CO)C(O)C1O` (stereo unspecified), the TGI in assay [1], in [2], in [4], in assay [5], in assay [8] and in assay [7] was > 100 µM in each case.

With `CCOP(=O)(CC(=O)C1=C(O)C(CCCNC(=O)OC(C)(C)C)N(Cc2ccc(OC)c(OC)c2)C1=O)OCC` (stereo unspecified), the TGI in assay [1], in assay [2], in [3], in assay [4], in assay [5] and in assay [6] was > 100 µM each time.

In the case of `CCc1cccc(CC)c1NC(=S)NC(=O)c1ccc(Br)cc1`, the TGI in [1], in assay [2], in assay [3], in [4], in [5] and in assay [9] was > 100 µM each time. The TGI in assay [6], in assay [8] and in assay [7] was > 100 µM in each case.

As to `CC(=O)NNc1nc(C)c(C(/C=C/c2ccc(Cl)cc2)=N\NS(=O)(=O)c2ccc(C)cc2)s1`, the TGI in assay [1], in assay [2], in [3], in assay [4], in [5] and in [6] was > 100 µM in each case. Also, the TGI in [8] and in assay [7] was > 100 µM throughout.

For the molecule `CCOc1ccccc1NC(=O)CCc1nnc2s/c(=C\CCc3ccccc3)c(=O)n12`, the TGI in assay [1], in assay [2], in assay [4], in assay [5], in assay [8] and in assay [7] was > 100 µM each time.

As to `O=C([O-])c1ccc2c(c1)-c1nc-2nc2[n-]c(nc3nc(nc4[n-]c(n1)c1ccc(C(=O)[O-])cc41)-c1cc(C(=O)[O-])ccc1-3)c1ccc(C(=O)[O-])cc21.[Fe+2]`, the GI50 is > 32.1 µM in assay [1]; > 43.9 µM in assay [2]; > 50 µM in assay [3]; > 50 µM in assay [4]; > 31.8 µM in assay [5]; > 50 µM in assay [6]. The GI50 in assay [8] and in assay [7] was > 50 µM in each case. Further, the TGI in [1], in assay [2], in assay [3], in assay [4], in assay [5] and in [6] was > 50 µM each time. The TGI in [8] and in assay [7] was > 50 µM each time.

With `FC(F)(F)c1ccc(C=NC23CC4CC(CC(C4)C2)C3)cc1`, the TGI in [2], in assay [4] and in assay [8] was > 100 µM in each case.

For `CC1C=C(OC(=O)c2ccccc2)C(=O)C(n2cc(F)c(=O)n(C(=O)c3ccccc3)c2=O)O1` (stereo unspecified), the TGI was > 100 µM in assay [1]; > 100 µM in assay [2]; > 100 µM in [3]; 81.9 µM in assay [4]; > 100 µM in assay [5]; > 100 µM in assay [6]. The TGI is > 100 µM in [8] and 73.3 µM in assay [7].

With `CCC(=O)OC1CCn2c1nc1c2C(=O)C(C)=C(N2CC2)C1=O` (stereo unspecified), the TGI was 1.58 µM in assay [1]; 0.121 µM in assay [2]; 0.228 µM in assay [3]; 0.831 µM in assay [4]; 0.345 µM in assay [5]; 0.181 µM in assay [9]. Besides, the TGI in [8] is 1.41 µM; in assay [7], 0.0973 µM.

As to `O=C(O)CCC1COc2ccccc2O1` (stereo unspecified), in assay [9], the TGI is > 10 µM.

For the molecule `NCCNCC(O)CO` (stereo unspecified), the TGI in assay [9] is > 100 µM.

`COC(=O)C1=C(C(=O)OC)C23C=CC=CC24C(C(=O)OC)=C(C(=O)OC)C4C1C3` (stereo unspecified): the TGI in assay [1], in assay [2], in assay [4], in assay [5], in assay [8] and in [7] was > 100 µM in each case.

On to `COC(=O)c1ccccc1NC(=O)C(=O)CC(=O)c1ccccc1NC1=CC(=O)C(=O)c2ccccc21`, for which the TGI was 30.4 µM in [1]; 25.8 µM in assay [2]; 29.6 µM in [3]; > 100 µM in [4]; 4.49 µM in assay [5]; 3.18 µM in assay [9]. For the same molecule, the TGI in assay [6] was > 80.8 µM; in [8], > 100 µM; in assay [7] it was 30.9 µM.

With `N#C/C(=C/c1cccnc1)C(=O)c1ccccc1`, the TGI in [1], in [2], in assay [3], in assay [4], in assay [5] and in assay [8] was > 100 µM throughout. Further, the TGI in [7] is > 100 µM.

In the case of `CC1CCCC(C(O)CC2CC(=O)N(c3ccccc3)C(=O)C2)C1=O` (stereo unspecified), the TGI in assay [1], in assay [2], in assay [3], in [4], in assay [5] and in [8] was > 100 µM each time.

As to `CCCCn1c2c(c3ccccc3c1=O)C(=O)c1ccccc1-2`, in [9], the TGI was > 100 µM.

For the molecule `CO[C@H]1[C@H](O)[C@H](O[C@H]2CC[C@@]3(C)[C@H](CC[C@@H]4[C@@H]3CC[C@]3(C)[C@@H](C5=CC(=O)OC5)CC[C@]43O)C2)O[C@@H](C)[C@@H]1O`, the TGI in assay [1] was 0.00767 µM; in [2], 0.00303 µM; in assay [3], 0.00382 µM; in assay [4], 0.0118 µM; in assay [5], 0.016 µM; in assay [9], < 0.0001 µM. Also, the TGI in assay [6] was > 100 µM. The GI50 in assay [6] is > 100 µM.
